# Laboratory results published in patent US12553889B2, “Small molecules targeting the intrinsically disordered structural ensemble of α-synuclein protect against diverse α-synuclein mediated dysfunctions” (The Regents of the University of California, priority 2019, dated 2026).
# Entries after “also recorded” stand apart in the source; their conditions may differ.
# What was measured:
# αSyn = αSyn (Homo sapiens, UniProt P37840); experiment: Cellular oligomerization assay (split Gaussia luciferase complementation in H4 cells); format: cell-based; settings: maximal concentrations not showing toxicity, 0.3% DMSO
# Procedure: H4 neuroglioma cells (HTB-148; ATCC) were passaged in DME containing 10% fetal calf serum (FCS). They were plated into 10 cm dishes at 7.5×10^5 cells per dish and the following day transfected with DNA and Fugene (Promega, Madison, WI) at a ratio of 3:1 with 7 μg each of Syn-Luc1 (S1) and Syn-Luc2 (S2) plasmids, which are also referred to as syn-hGluc(1) and syn-hGLuc(2) respectively (see Outeiro, T. F. et al. Plos One 3, e1867, incorporated herein by reference in entirety) and 3 μg of red firefly expressing plasmid (pCMV-Red firefly Luc, ThermoFisher, Waltham, MA) per dish according to the manufacturer's directions. S1 and S2 plasmids express αSyn containing split Gaussia luciferase with either the N-terminal fragment (S1) or C-terminal fragment (S2) attached to the C-terminus of αSyn. After 24 hours, the DNA containing media was removed and cells were fed fresh DME media containing 10% FCS. […] Gaussia luciferase activity was measured in the dark 0.1 sec after injection of 100 μl/well of […] coelenterazine, substrate (NanoLight, Pinetop, AZ) using a 2 sec integration on a Veritas Microplate Luminometer (Promega, Madison, WI). The cells were subsequently assayed for red Firefly activity using the ONE-Glo™ Luciferase Assay System kit (Promega, Madison, WI) on a Spectramax M5 (Molecular Devices, San Jose, CA) plate reader as a normalization measure. […]
# [1] = system: BACE, GST and CAII control proteins; experiment: Biacore 4000 SPR binding specificity (pb-index, control proteins); settings: 100 μM
# Procedure: The binding specificity of 576755 and its analogues was assessed by testing their ability to bind to αSyn versus a set of control proteins: Beta-Site Amyloid Precursor Protein Cleaving Enzyme 1 (BACE), Glutathione-S transferase (GST) and Carbonic Anhydrase (CAII). The binding data was merged into a pb-index, as discussed in more detail below. Compounds were tested at 100 μM using the Biacore 4000 instrument as described below. […] The percent RMax (% Rmax) for αSyn and the average % Rmax for the control proteins (pb-index) were calculated described below. […] The remaining 576755-analogues show no reaction with the control proteins and thus have improved specificity of binding.
# Preparation of off-target protein sensor chips. […]
# Surface Plasmon Resonance Measurements. […] Time-dependent binding curves were monitored simultaneously. […] The time-dependent binding curves were monitored simultaneously. […]
# SPR Data Evaluation. The obtained data were quality controlled and evaluated using the manufacturers Evaluation Software as described previously (Regnström, K. et al. (2013)). Data were exported into Microsoft Excel and further analyzed as follows: The binding levels of running buffer injections were used to calculate the background noise level (>three-fold σ). All binding level data was calculated by subtracting the background noise level and adjustment to molecular weight (% Rmax). […]
compound,measurement,setting,value
"CNC(=O)c1cc(O)ccc1N [Compound 576755, 2-amino-5-hydroxy-N-methylbenzamide]",impact on cellular αSyn oligomerization,αSyn,reproducibly reduced cellular oligomers; also recorded: reduces αSyn oligomerization
same,binding to control proteins (pb-index versus % Rmax of αSyn binding),[1],some non-specific binding to the control proteins
